Results on 1 compound are retold here after patent US20040043403A1, “Process for determining the biological activity of epidermal growth factor receptor tyrosine kinase inhibitors” (priority 2000, published 2004).

For experiment [1], the system named is MDA-MB468. Put plainly: Real time RT-PCR gene expression in MDA-MB468 cells. Type of experiment: cell-based, human. To be noted: MDA-MB468, 3 μM, 24 h; relative to DMSO-treated NCI-H520 calibrator. The procedure: 20 million tissue culture cells (about 80% confluent) or 200 million WBCs are incubated for 2 or 24 h in culture medium containing 3 μM of an EGFR tyrosine kinase inhibitor or 0.03% DMSO. Total RNA from cell pellet is isolated using the RNeasy kit (Qiagen). mRNA is isolated using the oligotex mRNA purification kit (Qiagen). The quality of the obtained mRNA is tested by real time RT-PCR using beta-Actin primers (PE Applied Biosystems) with an amplicon size of 300 base pairs (bp). The total RNA is used as a reference to calculate the amount of mRNA-enrichment in the oligotex purified samples. The primers and probes are designed from mRNA sequences within the coding region or in the 3′ untranslated region (Table 2). For real time RT-PCR, RNA concentrations between 1 and 50 ng/reaction are used to obtain signals between 15-35 cycles. For each RNA preparation RT-PCR reactions are performed with and without reverse transcriptase to check for genomic DNA contamination. In all RNA samples tested, genomic DNA contamination is less than 1%. To normalize for variability in the initial concentration and quality of the total RNA, Glyceraldehyde-3-phosphate dehydrogenase (GAPDH) is used as an endogenous reference in all quantification experiments. For RT-PCR a one step, two-enzyme system is chosen. The TaqMan PCR Core Reagent Kit (PE #N808-0228) plus the reverse transcriptase MuLV (PE Biosystems # N808-0018) and RNase inhibitor (Roche Diagnostics # 799 025) are mixed as described in the manufacturers protocol. Triplicate measurements are done for target and for reference reactions. […] RT-PCR reactions are done with RNA concentrations of 2.5, 5, 10, 20, 40 and 80 ng per reaction. […] The ΔCT value is determined by subtracting the average reference CT values from the average target CT values of the three measurements. Relative quantification is performed in triplicates, reference and target, using the RT-PCR protocol described above. […] Expression levels for the three genes, calculated relative to NCI-H520, show big differences between the various cell types (Table 5). […]

The test system of experiment [2] is A431, NCI-H596, NCI-H520, MDA-MB-468 and WBCs. As to the kind of experiment: UniGEM V array 2 h expression profiles of 4 tumor cell lines and WBCs. Type of experiment: cell-based, human. To be noted: 3 μM, cut off set at 3, vs DMSO, data not shown. The procedure:
20 million tissue culture cells (about 80% confluent) or 200 million WBCs are incubated for 2 or 24 h in culture medium containing 3 μM of an EGFR tyrosine kinase inhibitor or 0.03% DMSO. Total RNA from cell pellet is isolated using the RNeasy kit (Qiagen). mRNA is isolated using the oligotex mRNA purification kit (Qiagen). The quality of the obtained mRNA is tested by real time RT-PCR using beta-Actin primers (PE Applied Biosystems) with an amplicon size of 300 base pairs (bp). The total RNA is used as a reference to calculate the amount of mRNA-enrichment in the oligotex purified samples.
Probes for the UniGEM hybridization are synthesized by Incyte Genomics (Palo Alto, Calif., USA). For each probe 200 ng mRNA (50 ng/μl) is shipped in dry ice. The results are analyzed using the Expressionist Software Package provided by GeneData.
Expression profiles (UniGEM V arrays) of 4 tumor cell lines with different EGFR expression status (A431, NCI-H596, NCI-H520 and MDA-MB-468) and of WBCs upon exposure of cells to 3 μM of COMPOUND A for 2 or 24 h are analyzed. As control, cells treated with DMSO for the same time period are used. […] The cDNA array hybridization is repeated with the UniGEM 1 array using the same mRNA (Table 3).

Regarding `C[C@@H](Nc1ncnc2[nH]c(-c3ccc(O)cc3)cc12)c1ccccc1` [COMPOUND A, (R)-6-(4-hydroxy-phenyl)-4-[(1-phenyl-ethyl)-amino]-7H-pyrrolo[2,3-d]pyrimidine], in experiment [1], the “Relative Clusterin expression” value was 32.60 n-fold, the “Relative TRAIL expression” value is reported as 2.89 n-fold and the “Relative VAC-beta expression” value was 26.60 n-fold. For the same compound, in experiment [2], the “2 h expression profiles, induced and repressed genes” value was “almost no induced genes and only few repressed genes”; the “2 h expression profiles: early growth response protein 1” value was “repression in two cell lines and WBCs”.
